Experimental data as given in PubChem BioAssay (NCI).
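A five-concentration, 48-hour dose response in 96-well plates underlies each endpoint, interpolated linearly between surrounding concentrations. TGI is the concentration that stops growth completely.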

Assays:
Assay in all cases: DTP human tumour cell line panel, 48 h
NCI-H460 lung = test system: NCI-H460 lung
RPMI-8226 leukemia = test system: RPMI-8226 leukemia
K-562 leukemia = test system: K-562 leukemia
UACC-257 melanoma = test system: UACC-257 melanoma
XF 498 CNS = test system: XF 498 CNS
HCT-15 colon = test system: HCT-15 colon
786-0 renal = test system: 786-0 renal
SF-295 CNS = test system: SF-295 CNS
LXFL 529 NSCLC = test system: LXFL 529 NSCLC
SK-OV-3 ovarian = test system: SK-OV-3 ovarian
RXF 393 renal = test system: RXF 393 renal
MALME-3M melanoma = test system: MALME-3M melanoma
U251 CNS = test system: U251 CNS
SR leukemia = test system: SR leukemia
TK-10 renal = test system: TK-10 renal
NCI-H226 lung = test system: NCI-H226 lung
LOX IMVI melanoma = test system: LOX IMVI melanoma
UACC-62 melanoma = test system: UACC-62 melanoma
SF-539 CNS = test system: SF-539 CNS
NCI-H23 lung = test system: NCI-H23 lung
SK-MEL-28 melanoma = test system: SK-MEL-28 melanoma
M19-MEL melanoma = test system: M19-MEL melanoma
DMS 273 small cell lung = test system: DMS 273 small cell lung
A549 NSCLC = test system: A549 NSCLC
HOP-92 NSCLC = test system: HOP-92 NSCLC
SW-620 colon = test system: SW-620 colon
HCC-2998 colon = test system: HCC-2998 colon
CCRF-CEM leukemia = test system: CCRF-CEM leukemia
HL-60(TB) leukemia = test system: HL-60(TB) leukemia
SNB-75 CNS = test system: SNB-75 CNS
A498 renal = test system: A498 renal
HT29 colon = test system: HT29 colon
OVCAR-8 ovarian = test system: OVCAR-8 ovarian
DLD-1 colon = test system: DLD-1 colon
M14 melanoma = test system: M14 melanoma
OVCAR-4 ovarian = test system: OVCAR-4 ovarian
MOLT-4 leukemia = test system: MOLT-4 leukemia
OVCAR-3 ovarian = test system: OVCAR-3 ovarian
ACHN renal = test system: ACHN renal
SF-268 CNS = test system: SF-268 CNS
OVCAR-5 ovarian = test system: OVCAR-5 ovarian
IGROV1 ovarian = test system: IGROV1 ovarian
KM12 colon = test system: KM12 colon
EKVX NSCLC = test system: EKVX NSCLC
SK-MEL-5 melanoma = test system: SK-MEL-5 melanoma
HOP-62 NSCLC = test system: HOP-62 NSCLC
SNB-19 CNS = test system: SNB-19 CNS
COLO 205 colon = test system: COLO 205 colon
CAKI-1 renal = test system: CAKI-1 renal
UO-31 renal = test system: UO-31 renal
SK-MEL-2 melanoma = test system: SK-MEL-2 melanoma
SNB-78 CNS = test system: SNB-78 CNS
NCI-H522 lung = test system: NCI-H522 lung

Structure (SMILES): CSC1CC2C(CC1(C)SC)C2(C)C (stereo not drawn)
- TGI (NCI-H460 lung): 67 µM
- TGI (RPMI-8226 leukemia): 93.4 µM
- TGI (K-562 leukemia): 81.8 µM
- TGI (UACC-257 melanoma): 86.9 µM
- TGI (XF 498 CNS): 50.8 µM
- TGI (HCT-15 colon): > 100 µM
- TGI (786-0 renal): > 100 µM
- TGI (SF-295 CNS): > 100 µM
- TGI (LXFL 529 NSCLC): > 100 µM
- TGI (SK-OV-3 ovarian): > 100 µM
- TGI (RXF 393 renal): > 100 µM
- TGI (MALME-3M melanoma): > 100 µM
- TGI (U251 CNS): > 100 µM
- TGI (SR leukemia): > 100 µM
- TGI (TK-10 renal): > 100 µM
- TGI (NCI-H226 lung): 73.1 µM
- TGI (LOX IMVI melanoma): > 100 µM
- TGI (UACC-62 melanoma): > 100 µM
- TGI (SF-539 CNS): > 100 µM
- TGI (NCI-H23 lung): > 100 µM
- TGI (SK-MEL-28 melanoma): > 100 µM
- TGI (M19-MEL melanoma): > 100 µM
- TGI (DMS 273 small cell lung): > 100 µM
- TGI (A549 NSCLC): > 100 µM
- TGI (HOP-92 NSCLC): 53.9 µM
- TGI (SW-620 colon): > 100 µM
- TGI (HCC-2998 colon): > 100 µM
- TGI (CCRF-CEM leukemia): 84.2 µM
- TGI (HL-60(TB) leukemia): 58 µM
- TGI (SNB-75 CNS): 83.9 µM
- TGI (A498 renal): > 100 µM
- TGI (HT29 colon): > 100 µM
- TGI (OVCAR-8 ovarian): > 100 µM
- TGI (DLD-1 colon): > 100 µM
- TGI (M14 melanoma): > 100 µM
- TGI (OVCAR-4 ovarian): > 100 µM
- TGI (MOLT-4 leukemia): > 100 µM
- TGI (OVCAR-3 ovarian): > 100 µM
- TGI (ACHN renal): > 100 µM
- TGI (SF-268 CNS): > 100 µM
- TGI (OVCAR-5 ovarian): > 100 µM
- TGI (IGROV1 ovarian): > 100 µM
- TGI (KM12 colon): > 100 µM
- TGI (EKVX NSCLC): > 100 µM
- TGI (SK-MEL-5 melanoma): 78.9 µM
- TGI (HOP-62 NSCLC): > 100 µM
- TGI (SNB-19 CNS): > 100 µM
- TGI (COLO 205 colon): > 100 µM
- TGI (CAKI-1 renal): > 100 µM
- TGI (UO-31 renal): > 100 µM
- TGI (SK-MEL-2 melanoma): 56.8 µM
- TGI (SNB-78 CNS): > 100 µM
- TGI (NCI-H522 lung): > 100 µM
